# pEC50, pIC50: −log10 of the molar value. Like-named read-outs stand apart in the source and are kept apart here.
# Assays:
# [1] = tested on: hGLP-1R mutant Asn318 to alanine; parameters: method as in PMID 23479653; conditions: Asn318 mutated to alanine, cell surface expression unchanged; cited from earlier work
# [2] = tested on: zfGPCR (dual zfGLP-1R/GCGR); conditions: displacement of 125I-hGLP-1(7–36)amide; read-out: IC50 in competitive binding (earlier characterization of the zfGPCR); cited from earlier work
# Procedure: Furthermore, exendin-4, an agonist of hGLP-1R, displaced in competitive binding experiments the binding of ^125I-hGLP-1(7–36) amide to the zebrafish receptor with an IC50 of 0.9 nM, which is within a similar concentration range as the one determined in competitive binding experiments with recombinant hGLP-1R [41] and rGLP-1R [23]. However, subsequent phylo ...
# [3] = tested on: zfGPCR (dual zfGLP-1R/GCGR); assay: Competitive binding, displacement of 125I-hGLP-1(7–36)amide from recombinant zfGPCR expressed in COS-7 cells; parameters: species or system zebrafish (Danio rerio); conditions: 125I-hGLP-1(7–36)amide tracer, intact COS-7 cells, 16–18 h at 4°C, triplicate wells; NSB with 1 μM peptide; n = 3 hGLP-1, n = 2 zf glucagon, exendin-4, exendin(9–39), n = 1 zfGLP-1. 95% CI: zfGLP-1 1.2–3.6; hGLP-1 0.98–13; zf glucagon 1.4–4.0; exendin-4 0.24–0.92; exendin(9–39) 2.4–14
# Procedure: (§1) Competitive binding experiments were performed with the recombinant zfGPCR expressed in COS-7 cells, as described previously. Transient transfections of pcDNA3 vector containing recombinant zfGPCR into COS-7 cells were performed as described below for the stimulation of intracellular cAMP. Cells were grown in 100-mm plates to confluence and 24 hr after transfection they were trypsinized and transferred to 24 well plates (Biocore, Becton Dickinson). 24–48 hr later each peptide (pM to μM) was added in triplicate wells followed by the addition of an aliquot (100,000 cpm/well) of either ^125I-hGLP-1(7–36)amide or ^125I-exendin(9–39) (each radioactive peptide tracer at […] receptor grade, NEN Life Science Products, Boston, MA). Peptides, radioiodinated ^125I-tracer and cells were incubated for 16–18 h at 4°C. After incubation cells were washed twice with ice-cold PBS, lysed with 1N NaOH and radioactivity measured in a γ-counter. A single dose-displacement curve for each peptide was obtained in a single 24-well plate.
# Dose-response curves for zfGLP-1, zfGLP-2 and zebrafish PACAP-38 were obtained from one transfection. […] Lower rounds of transfections were performed in experiments that replicated our published results from the competitive binding experiments with the displacement of ^125I-hGLP-1(7–36)amide binding to zfGPCR [41] and thus represented positive controls for these studies.
# (§2) IC50 values represent an average of n experiments as described above and were calculated by the Prism 4 software. Displacement curves from the competitive binding experiments were plotted by Origin 9 software (OriginLab). Error bars are shown for data points in the displacement curves obtained in two or more rounds of transfections.
# (§3) Results from the functional experiments with recombinant zfGPCR transiently expressed in COS-7 cells were analyzed by the Prism 4 software using a four-parameter logistic sigmoidal curve fit model. Data points represent mean +/- SEM.
# They are shown together with the 95% confidence intervals (CIs). […]
# [4] = tested on: zfGPCR (dual zfGLP-1R/GCGR); assay: Competitive binding, displacement of 125I-exendin(9–39) from recombinant zfGPCR expressed in COS-7 cells; parameters: species or system zebrafish (Danio rerio); conditions: 125I-exendin(9–39) tracer, intact COS-7 cells, 16–18 h at 4°C, triplicate wells, NSB with 1 μM peptide, n = 4 zfGLP-1, n = 3 hGLP-1, zf glucagon, exendin-4, n = 5 exendin(9–39). 95% CI: zfGLP-1 225–371, hGLP-1 121–262, zf glucagon 78.5–144, h glucagon 33.6–134, exendin-4 0.84–1.17, exendin(9–39) 3.42–5.17
# Procedure: as §1
# Non-specific binding was determined in the presence of 1μM of each peptide.
# as §2, §3
# They are shown together with the 95% confidence intervals (CIs). The F-test was used to compare the IC50 value for zfGLP-1 with the IC50 values for the other tested peptides obtained in the competitive binding experiments shown when ^125I-hGLP-1(7–36)amide or ^125I-exendin (9–39) were used as tracers. Following conditions were used for the curve fitting: (i) in the normalization step y = 0%was set to be 0, y = 100% was set to be 100; (ii) constrained curve-fit parameters were set to be equal to 0.00 on the bottom, 100 on top; (iii) IC50 was not constrained; (iv) the selected option in the non-linear regression curve fit was intended on finding out whether the best-fit of a selected parameter (IC50) differs between two sets.
# [5] = tested on: hGLP-1R mutant Ser155 to alanine; conditions: Ser152 in hGCGR = Ser155 in hGLP-1R, mutated to alanine; cited from earlier work
# Excerpt: Among those are TM1-TM7 interaction between Ser152^1.50 and Ser 390^7.47 in which Ser152^1.50 in TM1 in hGCGR forms a hydrogen bond with the backbone of Ser390^7.47 in TM7.
# [6] = tested on: zfGPCR (dual zfGLP-1R/GCGR); assay: Intracellular cAMP in COS-7 cells expressing recombinant zfGPCR; format: cell-based, zebrafish (Danio rerio); conditions: for pEC50: 20 min at 37°C, pH 7.4, 1 mM 1-methyl-3-isobutylxanthine, enzyme immunoassay, n = 9 zfGLP-1, n = 5 hGLP-1, zf glucagon, h glucagon, n = 3 exendin-4, n = 6 zfGLP-2. 95% CI: zfGLP-1 0.24–0.80, hGLP-1 0.65–1.63, zf glucagon 0.20–2.9, h glucagon 0.18–1.63, exendin-4 0.07–0.46, zfGLP-2 16.8–72.6
# Procedure: The ability of different peptides to stimulate the increase in intracellular cAMP levels following their binding to the recombinant zfGPCR transiently expressed in COS-7 cells was measured using methods that we developed for non-mammalian G-protein coupled receptors. In brief, COS-7 cells were grown to confluence in 100-mm plates at 37°C and transfected with the pcDNA3 vector containing the recombinant zfGPCR using the TransFast transfection reagent (Promega, Madison, WI) at a […] of plasmid DNA (25 ug) to transfection reagent (75 μL). After 24 h cells were trypsynized and transferred to 24-well plates (Biocore, Becton-Dickinson, Franklin Lakes, NJ). Peptides (pM-μM) were added 24–48 h later. Cells were equilibrated prior to the addition of peptides with the assay buffer (DMEM, 0.5% BSA, 20mM HEPES, 1mM 1-methyl-3-isobutylxanthine, 0.1mM phenylmethylsulfonyl fluoride, pH 7.4) for 20 min at 37°C. Each peptide concentration was added in triplicate wells for 20 min at 37°C. cAMP dose-response curves for each tested peptide were obtained in a single 24-well plate. In all experiments, forskolin (100 nM) (Sigma-Aldrich, St.Louis, MO) was added as a positive control, also in triplicate wells, in the same 24-well plate as the tested peptide. After incubation, the media was removed and cells were lysed by the addition of cold ethanol (1 mL per well). Cell debris was pelleted by centrifugation (10,000 g) for 10-min, and supernatants were dried using a vacuum concentrator. Samples were resuspended in an assay buffer provided by the manufacturer and cAMP levels were quantified by the enzyme immunoassay kit (Cayman Chemicals, Ann Arbor, MI) according to the manufacturer’s instructions. The basal concentration of cAMP (in the absence of peptides) was taken as 1.00, and was in the range of 9–16 pmol/well. Results are presented as a fold-increase over basal.
# Results were plotted by the Origin 9 software (OriginLab), and EC50 values were calculated by Prism 4 software as described below.
# as §3
# They are shown together with the 95% confidence intervals (CIs).
# Comparison of EC50 values calculated from the zfGLP-1 cAMP dose-response curve with the EC50 calculated from the cAMP dose-response curves for each of the tested peptides were performed by the F-test from the Prism 4 software which compares the fitted mid-point (EC50) from the data sets of the two dose-response curves under comparison. Conditions of analysis were as follows: (i) in the normalization step y = 0% was set to be 1 (the basal cAMP concentration taken as 1); y = 100% was set to be the largest value in each data set; (ii) constrained curve-fit parameters were set to be equal to 0.00 on the bottom, 100 on top; (iii) EC50 was not constrained; (iv) the selected option in the non-linear regression curve fit was intended on finding out whether the best-fit of a selected parameter (EC50) differs between two sets.
# [7] = target: recombinant glucagon receptor from the goldfish C. auratus (gfGCGR); conditions: 95% CI: zebrafish glucagon 4.3–18 nM; goldfish glucagon 0.31–1 nM; cited from earlier work
# Excerpt: To be consistent with our initial characterization of this receptor which we referred to as zfGLP-1R [41] and the characterization of the gfGCGR [18] we used only the sequences of zfGLP-1 and zf glucagon used in those studies (shown in Fig 1) and not the second zfGLP-1 and second zebrafish glucagon found in the zebrafish genome.
# [8] = tested on: goldfish GCGR; conditions: 95% CI: goldfish glucagon 1.3–7 nM; human glucagon 4.7–20 nM; cited from earlier work
# Excerpt: In those studies the EC50 for goldfish glu ...
# [9] = tested on: recombinant hGCGR; parameters: method as in PMID 7507321; conditions: cited from earlier work
# [10] = target: glucagon receptor in rat hepatocytes; conditions: cited from earlier work
# Procedure: (§4) Moreover, EC50’s for human and zebrafish glucagon obtained in our study were within similar concentration range as the EC50 ‘s determined in experiments with recombinant glucagon receptors from other vertebrate species. Thus, EC50‘s for human glucagon obtained from the cAMP assays performed with the recombinant glucagon receptor from the frog and the recombinant rat glucagon receptor were 0.8 nM [19] and 0.7nM [13], respectively, and are similar to the EC50 value of 1nM determined for the glucagon receptor in rat hepatocytes.
# [11] = target: recombinant rat glucagon receptor; conditions: cited from earlier work
# Procedure: as §4
# [12] = target: recombinant glucagon receptor from the frog; conditions: cited from earlier work
# Procedure: as §4
# [13] = tested on: hGCGR mutant Glu362 to alanine; conditions: reduced surface expression; cited from earlier work
# Excerpt: Our inspection of the 7TM crystal structure of hGCGR [30] also identified a hydrophilic cluster formed by a salt bridge between Lys187^2.60 in TM2 and Glu362^6.53 in TM6, and hydrophilic portions of residues Tyr149^1.47 in TM1, Gln232^2.38, Asp238^2.43, […] in TM2; His361^6.52 in TM6, and Asp385^7.42, Ser389^7.46 Gln392^7.49 in TM7. This TM7-TM6-TM2-TM1 cluster offers a hydrophilic environment embedded deep inside the hydrophobic transmembrane.
# [14] = target: recombinant glucagon receptor from the frog R. tigrina rugulosa; parameters: method as in PMID 10471837; conditions: cited from earlier work
# [15] = tested on: hGCGR mutant Cys240 to Tyr240; conditions: cited from earlier work
# Excerpt: In the 7TM crystal structure of hGCGR [30], the side chain of Tyr239^3.44 in TM3 interacts with the backbone atoms of Gly359^6.50 (3.5Å) and Leu358^6.49 (2.8Å) in TM6. Tyr239^3.44 is conserved only in hGLP-1R and is substituted with Asn23 ...
# [16] = tested on: fish hepatocytes; conditions: GLP-1 from both human and fish; cited from earlier work
# Excerpt: Our approach to understanding the selectivity of ligand recognition by the receptors for the gluco-regulatory peptides, GLP-1 and glucagon, has been to functionally characterize the ligand selectivity of GCGRs and GLP-1Rs from non-mammalian vertebrates and to compare them to the ligand selectivity of their mammalian counterparts. […] In the abs ...
# [17] = tested on: GLP-1R; conditions: cited from earlier work
# Excerpt: Receptors for GLP-1 (GLP-1R) and glucagon (GCGR) belong to the class B GPCRs that mediate the physiological effects of the peptides within the glucagon-secretin peptide family. Their structures are characterized by large amino terminal extracellular domains which are about 140 amino acids long and an intracellular core consisting of a cytoplasmic domain and seven transmembrane helices (7TMs) connected through three extracellular and three intracellular loops.
substance,measurement,setting,value
"hGLP-1: Synthetic hGLP-1(7–36)amide (referred throughout as hGLP-1), purchased from Bachem",receptor affinity,[1],reduced the receptor’s affinity
same,pIC50,[2],9.05
same,pIC50,[3],8.44
same,pIC50,[4],6.75
same,receptor affinity,[5],small reduction of receptor affinity
same,pEC50,[6],9.00
"goldfish glucagon: glucagon of goldfish, literature comparison (HSEGTFSNDYSKYLETRRAQDFVEWLMNS; Glucagon; UniProt P79695 50-78, looked up)",pIC50,[7],9.25
same,pEC50,[8],8.52
human glucagon: synthetic human glucagon purchased from Bachem,pIC50,[9],8.30
same,pEC50,[10],9.00
same,pEC50,[11],9.15
same,pEC50,[12],9.10
same,pEC50,[8],8.01
same,effect of mutation on binding of glucagon,[13],decrease in the binding
same,pIC50,[14],7.92
same,pIC50,[4],7.17
same,effect of mutation on binding to glucagon,[15],did not have an effect
same,pEC50,[6],9.27
GLP-1: refers to both GLP-1(7–37) and GLP-1(7–36)amide,gluconeogenesis,[16],stimulated gluconeogenesis
same,"stimulation of intracellular cAMP, GLP-1 vs exendin-4",[17],to a similar degree
exendin(9–39),receptor affinity,[1],reduced the receptor’s affinity
same,pIC50,[3],8.24
same,pIC50,[4],8.38
same,behaviour at the zfGPCR,[6]; cAMP assay,behaved as an antagonist
same,stimulatory effect on cAMP levels,"[6]; even at 1μM, n = 4",did not show any stimulatory effects
